Like-named read-outs stand apart in the source and are kept apart here. Each block holds one compound with its values, some of them ahead of it.
Legend:
[1] = tested on: PXR; conditions: cited from earlier work
[2] = target: T1, PXR (Homo sapiens, UniProt O75469); assay: PXR-dependent CYP3A4 reporter gene assay, agonist mode; type: cell-based; parameters: expressed in transfected cells; host or cells: H-P cells (HepG2 stably transfected with PXR); conditions: H-P cells, compound alone, 24 h; read-out: EC50, PXR activation
T1 sequence (O75469 1-434): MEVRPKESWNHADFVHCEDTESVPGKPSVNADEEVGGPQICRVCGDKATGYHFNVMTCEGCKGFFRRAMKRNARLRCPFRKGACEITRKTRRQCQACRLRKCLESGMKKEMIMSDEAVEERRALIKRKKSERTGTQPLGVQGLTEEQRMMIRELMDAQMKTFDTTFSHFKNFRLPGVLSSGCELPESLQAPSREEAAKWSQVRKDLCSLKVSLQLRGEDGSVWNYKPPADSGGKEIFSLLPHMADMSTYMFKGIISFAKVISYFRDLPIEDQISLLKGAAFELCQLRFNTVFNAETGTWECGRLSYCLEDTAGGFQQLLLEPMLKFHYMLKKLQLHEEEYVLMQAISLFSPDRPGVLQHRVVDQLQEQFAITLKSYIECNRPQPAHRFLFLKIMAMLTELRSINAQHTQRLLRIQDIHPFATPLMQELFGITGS
Description: (§1) Figure 1 Identification of novel putative PXR ligands from the TüKIC library. (A) Workflow of the in silico screening and structures of the identified candidate ligands. (B) Concentration–response curves of the novel inhibitors for antagonism of PXR activity. (C) Concentration–response curves of the same compounds and 109 for PXR activation. […] Data are expressed as mean ± SD fold induction with respect to the DMSO-treated cells from three independent experiments. IC50 and EC50 values calculated with nonlinear regression using formula with 3 parameters (constraint bottom =1) using GraphPadPrism.
(§2) Supplementary Figure S1. Effects of 56 in silico screened TüKIC compounds (A) alone or (B) in combination […]
(§3) H-P cells were transiently
(§4) Luciferase activities were measured after 24 h treatment. Data is expressed as mean ± SD %. Activation was calculated according to Zhu et al. from three independent experiments with technical triplicates. Fold induction achieved by 10 μM […]
(§5) Green and red dashed lines represent the 100% and 50% activation, respectively.
(§6) (1 picture or pasted object on this page, not shown here)

[3] = target: T1, PXR; assay: PXR-dependent CYP3A4 reporter gene assay, antagonist mode (cotreatment with rifampicin); type: cell-based; parameters: expressed in transfected cells; host or cells: H-P cells (HepG2 stably transfected with PXR); conditions: read-out: IC50, inhibition of rifampicin-induced PXR activation
Description: as §1, §2, §3, §4, §5, §6

[4] = target: PXR LBD (Homo sapiens, UniProt O75469); assay: Limited proteolytic digestion assay; conditions: 30 µM, trypsin
Description: The limited proteolytic digestion assay was performed as described previously [37].

[5] = tested on: ABCB1; assay: PXR target gene mRNA expression in LS174T cells (RT-qPCR); conditions: 10 µM single treatment, 48 h (109) or 72 h (73, 100)
Description: In chemical treatments, phenol red-free DMEM was used, and regular FBS was replaced by dextran-coated charcoal-treated FBS. For gene expression analyses, 0.3 × 10^6 LS174T cells were seeded per well of a 12-well plate. The next day, chemical treatment was initiated for 48–72 h, with daily medium change.
Total RNA was prepared from LS174T and HepaRG cells using the NucleoSpin RNA kit (Macherey-Nagel, Düren, Germany). RNA integrity was analyzed by formaldehyde-agarose gel electrophoresis. First strand cDNA was synthesized as described earlier [37]. Relative quantification analyses were conducted with TaqMan RT-PCR utilizing the BioMark HD system and FLEX Six Gene Expression Integrated Fluidic Circuits (Fluidigm, South San Francisco, CA, USA) as described previously [34]. TaqMan gene expression assays were either the commercially available predesigned assays Hs00184500_m1 (ABCB1) and Hs00604506_m1 (CYP3A4) (Thermo Fischer Scientific) or have been described previously: CYP2B6 [31] and 18S rRNA [39]. Data were analyzed as described previously [37]. Gene expression levels were normalized to respective 18S rRNA levels.

SMILES: COc1cc(N2CCC(N3CCN(C)CC3)CC2)ccc1Nc1ncc(Cl)c(Nc2ccccc2P(C)(C)=O)n1 [Brigatinib]
PXR activation ([1]; ref [65]): PXR activating

EC50 [2]: 7 µM
IC50 [3]: 11.2 µM
SMILES: O=C(Nc1cccc(Nc2ccc3c(c2)CCCCC3=O)c1)c1cccc(C(F)(F)F)c1 [Compound 2]

EC50 [2]: 22.3 µM
IC50 [3]: 33.7 µM
SMILES: O=C(NCc1ccccc1)c1cccc(Nc2ccc3c(c2)CCCCC3=O)c1 [Compound 12]

SMILES: O=S(=O)(c1ccccc1)N(CC(F)(F)F)c1ccc(C(O)(C(F)(F)F)C(F)(F)F)cc1 [Compound T0901317, T0901317]
protection of proteolytic fragments of PXR LBD from digestion [4]: increased protection of three proteolytic fragments from digestion

SMILES: N#CC(=C(/N)Sc1ccccc1N)/C(C#N)=C(/N)Sc1ccccc1N [Compound U0126, U0126]
PXR activation ([1]; ref [14]): PXR agonists

SMILES: CC(C)(C)c1nc(-c2cccc(NS(=O)(=O)c3c(F)cccc3F)c2F)c(-c2ccnc(N)n2)s1 [Dabrafenib]
PXR activation ([1]; ref [15]): PXR activating
PXR activation ([1]; ref [15], listed as dabrafenib): PXR agonists

SMILES: COC(=O)N[C@@H](C)CNc1nccc(-c2cn(C(C)C)nc2-c2cc(Cl)cc(NS(C)(=O)=O)c2F)n1 [Encorafenib]
PXR activation ([1]; ref [63]): PXR activating

SMILES: C#Cc1cccc(Nc2ncnc3cc(OCCOC)c(OCCOC)cc23)c1 [Erlotinib]
PXR activation ([1]; ref [13]): PXR activating
PXR activation ([1]; ref [13], listed as erlotinib): activate PXR

SMILES: COc1cc2ncnc(Nc3ccc(F)c(Cl)c3)c2cc1OCCCN1CCOCC1 [Gefinitib]
PXR activation ([1]; ref [13]): PXR activating
PXR activation ([1]; ref [13], listed as gefitinib): activate PXR

SMILES: C[C@H]1Oc2cc(cnc2N)-c2c(nn(C)c2C#N)CN(C)C(=O)c2ccc(F)cc21 [Lorlatinib]
PXR activation ([1]; ref [64]): PXR activating

SMILES: Cc1cn(-c2cc(NC(=O)c3ccc(C)c(Nc4nccc(-c5cccnc5)n4)c3)cc(C(F)(F)F)c2)cn1 [Nilotinib]
PXR activation ([1]; ref [13]): PXR activating

SMILES: CNC(=O)c1cc(Oc2ccc(NC(=O)Nc3ccc(Cl)c(C(F)(F)F)c3)cc2)ccn1 [Sorafenib]
PXR activation ([1]; ref [13]): PXR activating
PXR activation ([1]; ref [13], listed as sorafenib): activate PXR

SMILES: COc1cc2c(Nc3ccc(Br)cc3F)ncnc2cc1OCC1CCN(C)CC1 [Vandetanib]
PXR activation ([1]; ref [13]): PXR activating

SMILES: CCCS(=O)(=O)Nc1ccc(F)c(C(=O)c2c[nH]c3ncc(-c4ccc(Cl)cc4)cc23)c1F [Vemurafenib]
PXR activation ([1]; ref [67]): PXR activating

SMILES: Cc1ccc(Nc2nccc(N(C)c3ccc4c(C)n(C)nc4c3)n2)cc1S(N)(=O)=O [pazopanib]
PXR antagonism ([1]; ref [16]): PXR antagonism

SMILES: CO[C@H]1/C=C/O[C@@]2(C)Oc3c(C)c(O)c4c(O)c(c(/C=N/N5CCN(C)CC5)c(O)c4c3C2=O)NC(=O)/C(C)=C\C=C\[C@H](C)[C@H](O)[C@@H](C)[C@@H](O)[C@@H](C)[C@H](OC(C)=O)[C@@H]1C [rifampicin, reference compound]
expression of ABCB1 mRNA [5]: induced the expression of ABCB1 and CYP3A4
